Data reported in article PMC8138313, “Identification, Selection and Immune Assessment of Liver Stage CD8 T Cell Epitopes From Plasmodium falciparum” (Frontiers in Immunology, 2021).
pIC50: −log10 of the molar value. Where a SMILES comes first, the peptide text is derived from it.

target: HLA A*2402 (Homo sapiens, UniProt P04439, D101N/D140Y/D185E/E176V/E190D/F33S/G103R/G107R/I119L/I121M/I306V/K335N/L105A/L180Q/L300P/N151K/N90K/Q86E/Q94H/R106L/R138H/R89G/T104I/T345S/V100E/W191G/Y123F); assay: HLA class I binding assay (cell-free competition, fluorescence polarization)

| Compound | pIC50 |
| --- | --- |
| CC[C@H](C)[C@H](N)C(=O)N[C@@H](Cc1ccc(O)cc1)C(=O)NCC(=O)N[C@@H](CCCCN)C(=O)NCC(=O)NCC(=O)N[C@@H](Cc1ccccc1)C(=O)N[C@@H](CCC(N)=O)C(=O)N[C@@H](Cc1ccccc1)C(=O)O (H-IYGKGGFQF-OH) | 6.79 |
| CC[C@H](C)[C@H](NC(=O)[C@H](CCCNC(=N)N)NC(=O)[C@@H]1CCCN1C(=O)[C@H](CC(=O)O)NC(=O)[C@H](Cc1ccc(O)cc1)NC(=O)[C@@H](N)CCCCN)C(=O)N[C@@H](CO)C(=O)NCC(=O)N[C@@H](Cc1c[nH]c2ccccc12)C(=O)O (H-KYDPRISGW-OH) | 5.30 |
| CC(C)C[C@H](N)C(=O)N[C@@H](Cc1ccccc1)C(=O)NCC(=O)N[C@@H](CC(=O)O)C(=O)N[C@@H](CCC(=O)O)C(=O)N[C@@H](CC(N)=O)C(=O)N[C@@H](Cc1ccccc1)C(=O)N[C@@H](CO)C(=O)N[C@@H](Cc1ccccc1)C(=O)O (H-LFGDENFSF-OH) | 5.23 |
| CSCC[C@H](N)C(=O)N[C@@H](Cc1ccc(O)cc1)C(=O)N[C@@H](Cc1c[nH]cn1)C(=O)N[C@@H](CC(N)=O)C(=O)N[C@@H](CCCCN)C(=O)N[C@@H](CCC(=O)O)C(=O)N[C@@H](Cc1ccccc1)C(=O)N[C@@H](CC(=O)O)C(=O)N[C@@H](Cc1ccccc1)C(=O)O (H-MYHNKEFDF-OH) | 5.35 |
| CSCC[C@H](NC(=O)[C@@H](N)CC(N)=O)C(=O)N[C@@H](CC(N)=O)C(=O)N[C@@H](Cc1ccc(O)cc1)C(=O)N[C@@H](CCCCN)C(=O)N[C@@H](CCC(N)=O)C(=O)N[C@@H](CC(N)=O)C(=O)N[C@@H](CC(N)=O)C(=O)N[C@@H](Cc1ccccc1)C(=O)O (H-NMNYKQNNF-OH) | 4.83 |
| NCCCC[C@H](NC(=O)[C@H](Cc1ccc(O)cc1)NC(=O)[C@@H](N)CC(N)=O)C(=O)N[C@@H](CCC(N)=O)C(=O)N[C@@H](CC(N)=O)C(=O)N[C@@H](CC(N)=O)C(=O)N[C@@H](Cc1ccccc1)C(=O)N1CCC[C@H]1C(=O)N[C@@H](Cc1ccccc1)C(=O)O (H-NYKQNNFPF-OH) | 5.02 |
| CC[C@H](C)[C@H](NC(=O)[C@H](CC(N)=O)NC(=O)[C@H](Cc1ccc(O)cc1)NC(=O)[C@H](CCC(N)=O)NC(=O)[C@H](CC(=O)O)NC(=O)[C@H](CC(N)=O)NC(=O)[C@H](CC(N)=O)NC(=O)[C@H](Cc1ccc(O)cc1)NC(=O)[C@@H](N)CC(N)=O)C(=O)O (H-NYNNDQYNI-OH) | 5.18 |
| CC(C)C[C@H](NC(=O)[C@H](Cc1ccccc1)NC(=O)[C@@H]1CCCN1)C(=O)N[C@@H](CCCCN)C(=O)N[C@@H](CO)C(=O)NCC(=O)N[C@@H](Cc1ccccc1)C(=O)N[C@H](C(=O)N[C@@H](Cc1ccccc1)C(=O)O)[C@@H](C)O (H-PFLKSGFTF-OH) | 5.08 |
| N=C(N)NCCC[C@H](NC(=O)[C@H](Cc1ccc(O)cc1)NC(=O)[C@H](CCCCN)NC(=O)[C@@H]1CCCN1C(=O)[C@H](Cc1c[nH]cn1)NC(=O)[C@@H](N)CO)C(=O)N[C@@H](CC(N)=O)C(=O)N[C@@H](Cc1ccccc1)C(=O)N[C@@H](CCCCN)C(=O)N[C@@H](Cc1ccccc1)C(=O)O (H-SHPKYRNFKF-OH) | 4.78 |
| CC[C@H](C)[C@H](NC(=O)[C@H](CO)NC(=O)[C@H](Cc1ccc(O)cc1)NC(=O)[C@@H](N)[C@@H](C)O)C(=O)N[C@@H](Cc1ccc(O)cc1)C(=O)N[C@H](C(=O)N[C@@H](CC(N)=O)C(=O)N[C@@H](Cc1ccccc1)C(=O)N[C@@H](CCCCN)C(=O)N[C@@H](CC(N)=O)C(=O)O)[C@@H](C)O (H-TYSIYTNFKN-OH) | 4.58 |
| C[C@@H](O)[C@H](NC(=O)[C@H](Cc1ccc(O)cc1)NC(=O)[C@H](CCCCN)NC(=O)[C@H](Cc1ccc(O)cc1)NC(=O)[C@@H](N)Cc1c[nH]c2ccccc12)C(=O)N[C@@H](CCC(=O)O)C(=O)N[C@@H](CO)C(=O)N[C@@H](CC(=O)O)C(=O)N[C@@H](Cc1ccccc1)C(=O)O (H-WYKYTESDF-OH) | 5.60 |
| CC(C)[C@H](NC(=O)[C@H](Cc1ccccc1)NC(=O)[C@H](CCC(N)=O)NC(=O)[C@H](Cc1ccccc1)NC(=O)CNC(=O)CNC(=O)[C@H](CCCCN)NC(=O)CNC(=O)[C@@H](N)Cc1ccc(O)cc1)C(=O)N[C@@H](Cc1ccccc1)C(=O)O (H-YGKGGFQFVF-OH) | 6.64 |
